Several values for one entry are separate records, joined by “and”; a condition that tells them apart may be missing. Equal values may be shown once. Read-outs that look alike come from different tables or passages of the source.
Legend:
[1] = Compound A in clinical setting: treatment-related adverse events; format: in vivo, human; settings: TRAEs, n = 84
[2] = food/PPI effect on single-dose PK in healthy volunteers (phase 1); format: in vivo, human; settings: for CL/F: read-out: CL/F_Obs, Geometric Mean (Geometric CV %) (converted); for Vd/F: read-out: Vz/F, Geometric Mean (Geometric CV %)
Protocol: The primary endpoints were AUCinf and Cmax. Additional parameters measured included AUClast and Tmax.
This phase 1, open-label study included a crossover, fed/fasted cohort and a fixed-sequence PPI cohort. For the fed/fasted cohort, healthy male volunteers received a single oral dose of Compound A 200 mg in a fasted state during treatment A and in a fed state, following a high-calorie/high-fat meal, during treatment B. Participants were randomized to a dosing sequence of treatments AB or BA. For the PPI cohort, a single oral dose of Compound A 300 mg was administered alone in a fed state during treatment C, and during treatment D, participants received esomeprazole 40 mg for 5 days prior to a single oral dose of Compound A 300 mg on day 5 in a fed state. Participants were assigned to a fixed-dosing sequence of treatments CD. There was a 24-day washout period between Compound A treatments. PK blood samples were collected predose and at selected times up to 312 hours post-Compound A dose. Primary endpoints were area under the plasma concentration-time curve from the time of dosing extrapolated to infinity (AUCinf) and maximum plasma concentration (Cmax) of Compound A. Secondary endpoints included additional PK parameters and safety and tolerability.
The effect of food and a PPI on the PK of Compound A was evaluated in healthy participants. PK results are presented in Tables 2 and 3 and are summarized here.

AR T878S = molecular target: T1, AR T878S (Homo sapiens, UniProt P10275, T878S); experiment: AR degradation in T-Rex-293 cell line, T878S; format: cell-based; settings: T-Rex-293, ELISA
T1 construct: expressed in transfected cells; host or cells: T-REx-293
Text: FIG. 3 is a graph showing Compound A's ability to degrade clinically relevant mutated forms AR.
To assess the ability of Compound A to degrade variants of the AR, vectors expressing wild-type AR or mutant AR proteins harboring clinically observed mutations in the ligand binding domain (13 with single amino acid changes or 4 with 2 amino acid changes) (Azad A. A., Volik S. V., Wyatt A. W., et al. Androgen receptor gene aberrations in circulating cell-free DNA: biomarkers of therapeutic resistance in castration-resistant prostate cancer. Clin Cancer Res. 2015; 21:2315-2324; Robinson D., Van Allen E. M., Wu Y. M., et al. Integrative clinical genomics of advanced prostate cancer. Cell. 2015; 161:1215-1228; Ledet E. M., Lilly M. B., Sonpavde G., et al. Comprehensive analysis of AR alterations in circulating tumor DNA from patients with advanced prostate cancer. Oncologist.

[3] = 200 mg, fed (test) vs fasted (reference)
[4] = 300 mg, fed, esomeprazole 40 mg
[5] = male, human, plasma, oral, 40 mg Esomeprazole + 300 mg
[6] = male, human, plasma, oral, 200 mg, Fasted
[7] = male, human, plasma, oral, 200 mg, Fed
[8] = male, human, plasma, oral, 300 mg, 300 mg Alone

T1 sequence (P10275 whole entry T878S): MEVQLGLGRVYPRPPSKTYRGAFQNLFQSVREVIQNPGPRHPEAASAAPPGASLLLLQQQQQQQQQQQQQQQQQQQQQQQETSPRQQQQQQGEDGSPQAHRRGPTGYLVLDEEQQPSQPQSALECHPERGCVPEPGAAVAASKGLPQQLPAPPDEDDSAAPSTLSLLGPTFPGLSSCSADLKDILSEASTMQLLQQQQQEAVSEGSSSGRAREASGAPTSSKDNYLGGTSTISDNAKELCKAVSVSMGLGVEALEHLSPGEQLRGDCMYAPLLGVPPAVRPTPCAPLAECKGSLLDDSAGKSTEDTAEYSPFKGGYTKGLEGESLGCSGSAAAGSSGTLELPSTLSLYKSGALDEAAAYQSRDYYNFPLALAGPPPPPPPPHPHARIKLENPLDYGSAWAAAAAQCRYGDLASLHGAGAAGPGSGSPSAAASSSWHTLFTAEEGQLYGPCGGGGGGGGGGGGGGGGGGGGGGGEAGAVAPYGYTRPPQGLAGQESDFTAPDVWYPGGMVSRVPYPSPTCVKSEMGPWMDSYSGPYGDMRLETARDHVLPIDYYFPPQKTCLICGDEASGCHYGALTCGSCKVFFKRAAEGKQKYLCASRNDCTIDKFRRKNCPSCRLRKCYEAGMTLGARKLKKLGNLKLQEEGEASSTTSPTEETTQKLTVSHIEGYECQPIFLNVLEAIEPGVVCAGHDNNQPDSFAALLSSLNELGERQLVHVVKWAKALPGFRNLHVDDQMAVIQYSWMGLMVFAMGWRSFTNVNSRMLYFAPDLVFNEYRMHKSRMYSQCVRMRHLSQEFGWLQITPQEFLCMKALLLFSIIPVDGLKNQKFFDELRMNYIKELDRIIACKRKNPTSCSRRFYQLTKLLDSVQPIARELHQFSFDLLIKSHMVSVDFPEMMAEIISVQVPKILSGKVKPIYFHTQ

In the case of `COc1cc(O[C@H]2C(C)(C)[C@H](NC(=O)c3ccc(N4CCC(CN5CCN(c6ccc(C(=O)N[C@H]7CCC(=O)NC7=O)c(F)c6)CC5)CC4)cc3)C2(C)C)ccc1C#N` [Compound A, 4-(4-((1-(4-(((1R,3R)-3-(4-cyano-3-methoxyphenoxy)-2,2,4,4-tetramethylcyclobutyl)carbamoyl)phenyl)piperidin-4-yl)methyl)piperazin-1-yl)-N—((S)-2,6-dioxopiperidin-3-yl)-2-fluorobenzamide], the “Alopecia: Any Grade” value [1] is reported as 8 n, the “Alopecia: Grade 3+” value [1] is reported as 0 (0) n (%) and the “Anemia: Any Grade” value [1] is reported as 3 n. For the same molecule, the “Anemia: Grade 3+” value [1] was 0 (0) n (%), the “Any TRAE: Any Grade” value [1] was 55 n and the “Any TRAE: Grade 3+” value [1] was 7 (8) n (%). The “Aspartate Aminotransferase increase: Any Grade” value [1] was 6 n, the “Aspartate Aminotransferase increase: Grade 3+” value [1] was 1 (1) n (%) and the “Decreased appetite: Any Grade” value [1] was 9 n. The “Decreased appetite: Grade 3+” value [1] was 0 (0) n (%), the “Diarrhea: Any Grade” value [1] was 9 n and the “Diarrhea: Grade 3+” value [1] was 1 (1) n (%). The “Fatigue: Any Grade” value [1] was 24 n, the “Fatigue: Grade 3+” value [1] was 2 (2) n (%) and the “Nausea: Any Grade” value [1] was 12 n. For the same molecule, the “Nausea: Grade 3+” value [1] was 0 (0) n (%), the “Vomiting: Any Grade” value [1] was 9 n and the “Vomiting: Grade 3+” value [1] was 0 (0) n (%). For the same molecule, the “Weight decrease: Any Grade” value [1] was 1 n, the “Weight decrease: Grade 3+” value [1] was 0 (0) n (%) and the “delay of median Tmax, fed vs fasted” value ([2]; 200 mg single oral dose) was “≈ 4 hours”. The “AUCinf Geometric LS Mean Ratio (fed/fasted), relative bioavailability” value [2, 3] was 306.34% and 306.3%, the “AUClast Geometric LS Mean Ratio (fed/fasted), relative bioavailability” value [2, 3] was 313.03% and 313.0% and the “Cmax Geometric LS Mean Ratio (fed/fasted), relative bioavailability” value [2, 3] was 394.46% and 394.5%. The “AUCinf Geometric LS Mean Ratio (with esomeprazole/alone)” value ([2]; 300 mg, fed) was 89.2%, the “AUClast Geometric LS Mean Ratio (with esomeprazole/alone)” value ([2]; 300 mg, fed) was 88.1% and the “Cmax Geometric LS Mean Ratio (with esomeprazole/alone)” value ([2]; 300 mg, fed) was 80.16% and 80.2%. For the same molecule, the “reduction in AUCinf with esomeprazole vs Compound A alone” value [2, 4] was roughly 11%, the “reduction in Cmax with esomeprazole vs Compound A alone” value [2, 4] was “≈ 20% and ~20%” and the “effect of esomeprazole on Compound A exposure” value ([2]; 300 mg, moderate-fat fed conditions) was “small effect, but not clinically significant”. The “increase of extent of systemic exposure (AUCinf), fed vs fasted” value ([2]; high fat meal vs fasted, humans) was 3.1 fold and ~3 fold, the AUC(0-inf) ([2]; male, human, plasma, oral, 40 mg Esomeprazole + 300 mg, read-out: AUCinf-Obs, Geometric Mean (Geometric CV %)) was 9720 ng·h/mL and the AUC(0-t) ([2]; male, human, plasma, oral, 40 mg Esomeprazole + 300 mg, read-out: AUClast, Geometric Mean (Geometric CV %)) was 9370 ng·h/mL. It also gave a CL/F [2, 5] of 515 mL/min, a Cmax ([2]; male, human, plasma, oral, 40 mg Esomeprazole + 300 mg, read-out: Cmax, Geometric Mean (Geometric CV %)) of 117 ng/mL and a half-life ([2]; male, human, plasma, oral, 40 mg Esomeprazole + 300 mg, read-out: T1/2, Geometric Mean (Geometric CV %) (converted)) of 65.5 h. The Tmax ([2]; male, human, plasma, oral, 40 mg Esomeprazole + 300 mg, read-out: Tmax) was 10 h, the Vd/F [2, 5] was 2920 L and the AUC(0-inf) ([2]; male, human, plasma, oral, 200 mg, 200 mg alone, fasted, read-out: AUCinf, Geometric LS Mean) was 3460 ng·h/mL. For the same molecule, the AUC(0-t) ([2]; male, human, plasma, oral, 200 mg, 200 mg alone, fasted, read-out: AUClast, Geometric LS Mean) was 3300 ng·h/mL, the Cmax ([2]; male, human, plasma, oral, 200 mg, 200 mg alone, fasted, read-out: Cmax, Geometric LS Mean) was 36 ng/mL and the AUC(0-inf) ([2]; male, human, plasma, oral, 200 mg, 200 mg alone, fed, read-out: AUCinf, Geometric LS Mean) was 10600 ng·h/mL. The AUC(0-t) ([2]; male, human, plasma, oral, 200 mg, 200 mg alone, fed, read-out: AUClast, Geometric LS Mean) was 10300 ng·h/mL, the Cmax ([2]; male, human, plasma, oral, 200 mg, 200 mg alone, fed, read-out: Cmax, Geometric LS Mean) was 142 ng/mL and the AUC(0-inf) ([2]; male, human, plasma, oral, 200 mg, Fasted, read-out: AUCinf-Obs, Geometric Mean (Geometric CV %)) was 3460 ng·h/mL. The AUC(0-t) ([2]; male, human, plasma, oral, 200 mg, Fasted, read-out: AUClast, Geometric Mean (Geometric CV %)) was 3300 ng·h/mL, the CL/F [2, 6] was 964 mL/min and the Cmax ([2]; male, human, plasma, oral, 200 mg, Fasted, read-out: Cmax, Geometric Mean (Geometric CV %)) was 36.1 ng/mL. It also gave a half-life ([2]; male, human, plasma, oral, 200 mg, Fasted, read-out: T1/2, Geometric Mean (Geometric CV %) (converted)) of 65.3 h, a Tmax ([2]; male, human, plasma, oral, 200 mg, Fasted, read-out: Tmax) of 7.75 h and a Vd/F [2, 6] of 5450 L. For the same molecule, the AUC(0-inf) ([2]; male, human, plasma, oral, 200 mg, Fed, read-out: AUCinf-Obs, Geometric Mean (Geometric CV %)) was 10600 ng·h/mL, the AUC(0-t) ([2]; male, human, plasma, oral, 200 mg, Fed, read-out: AUClast, Geometric Mean (Geometric CV %)) was 10300 ng·h/mL and the CL/F [2, 7] was 315 mL/min. The Cmax ([2]; male, human, plasma, oral, 200 mg, Fed, read-out: Cmax, Geometric Mean (Geometric CV %)) was 142 ng/mL, the half-life ([2]; male, human, plasma, oral, 200 mg, Fed, read-out: T1/2, Geometric Mean (Geometric CV %) (converted)) was 58.7 h and the Tmax ([2]; male, human, plasma, oral, 200 mg, Fed, read-out: Tmax) was 12 h. The Vd/F [2, 7] was 1600 L, the AUC(0-inf) ([2]; male, human, plasma, oral, 200 mg, fasted, read-out: AUCinf) was 3460 ng·h/mL and the AUC(0-inf) ([2]; male, human, plasma, oral, 200 mg, fed (high-fat meal), read-out: AUCinf) was 10600 ng·h/mL. It also gave a half-life ([2]; male, human, plasma, oral, 200 mg, under both fed and fasted conditions, read-out: mean T1/2) of 60 to 76 h, a Tmax ([2]; male, human, plasma, oral, 300 mg with esomeprazole 40 mg, fed, read-out: median Tmax) of 10 h and an AUC(0-inf) ([2]; male, human, plasma, oral, 300 mg, 300 mg Alone, read-out: AUCinf-Obs, Geometric Mean (Geometric CV %)) of 10900 ng·h/mL. It also gave an AUC(0-t) ([2]; male, human, plasma, oral, 300 mg, 300 mg Alone, read-out: AUClast, Geometric Mean (Geometric CV %)) of 10600 ng·h/mL, a CL/F [2, 8] of 459 mL/min and a Cmax ([2]; male, human, plasma, oral, 300 mg, 300 mg Alone, read-out: Cmax, Geometric Mean (Geometric CV %)) of 146 ng/mL. For the same molecule, the half-life ([2]; male, human, plasma, oral, 300 mg, 300 mg Alone, read-out: T1/2, Geometric Mean (Geometric CV %) (converted)) was 58.4 h, the Tmax ([2]; male, human, plasma, oral, 300 mg, 300 mg Alone, read-out: Tmax) was 7 h and the Vd/F [2, 8] was 2320 L. For the same molecule, the AUC(0-inf) ([2]; male, human, plasma, oral, 300 mg, 300 mg alone, fed, read-out: AUCinf, Geometric LS Mean) was 10900 ng·h/mL, the AUC(0-t) ([2]; male, human, plasma, oral, 300 mg, 300 mg alone, fed, read-out: AUClast, Geometric LS Mean) was 10600 ng·h/mL and the Cmax ([2]; male, human, plasma, oral, 300 mg, 300 mg alone, fed, read-out: Cmax, Geometric LS Mean) was 146 ng/mL. It also gave a Tmax ([2]; male, human, plasma, oral, 300 mg, 300 mg alone, fed, read-out: median Tmax) of 7 h, an AUC(0-inf) ([2]; male, human, plasma, oral, 300 mg, 300 mg with esomeprazole, fed, read-out: AUCinf, Geometric LS Mean) of 9720 ng·h/mL and an AUC(0-t) ([2]; male, human, plasma, oral, 300 mg, 300 mg with esomeprazole, fed, read-out: AUClast, Geometric LS Mean) of 9370 ng·h/mL. For the same molecule, the Cmax ([2]; male, human, plasma, oral, 300 mg, 300 mg with esomeprazole, fed, read-out: Cmax, Geometric LS Mean) was 117 ng/mL, the delay of median Tmax with esomeprazole ([2]; male, human, plasma, oral, 300 mg, fed) was 3 h and the Tmax ([2]; male, human, plasma, po, 200 mg, 200 mg single oral dose, fasted, read-out: median Tmax) was 7.75 h. It also gave a Tmax ([2]; male, human, plasma, po, 200 mg, 200 mg single oral dose, fed (high-fat meal), read-out: median Tmax) of 12 h and a DC50 (AR T878S) of 900 pM.

— patent publication US20240180900A1, “COMPOUNDS AND METHODS FOR THE TARGETED DEGRADATION OF ANDROGEN RECEPTOR” (Arvinas Operations, Inc., priority 2022, published 2024)
